Activity calls are given as the source filed them. No cut-off for these calls is given here.
Columns and labels:
NCI-H1299 [1] = assay: Antiinvasive activity against human H1299 cells after 3 hrs by Boyden chamber invasion assay; format: functional, cell-based
NCI-H1299 [2] = assay: Antimigratory activity against human H1299 cells after 24 hrs by wound-healing assay; format: functional, cell-based
A549 [3] = assay: Reduction in MMP9 expression in human A549 cells at 1 to 10 uM after 24 hrs by Western blot method; format: functional, cell-based
A549 [4] = assay: Reduction in MMP2 expression in human A549 cells at 1 to 10 uM after 24 hrs by Western blot method; format: functional, cell-based
A549 [5] = assay: Antiinvasive activity against human A549 cells after 3 hrs by Boyden chamber invasion assay; format: functional, cell-based
A549 [6] = assay: Antimigratory activity against human A549 cells after 24 hrs by wound-healing assay; format: functional, cell-based
A549 [7] = assay: Cytotoxicity against human A549 cells assessed as viable cells at 1 to 30 uM after 24 hrs by LDH assay; format: cell-based; conditions: a549, 24 h
[8] = Cytotoxicity against human A549 cells assessed as viable cells at 1 to 30 uM after 24 hrs by CCK8 assay; format: cell-based; conditions: read-out: Activity
[9] = Cytotoxicity against human A549 cells assessed as viable cells at 1 to 30 uM after 3 hrs by CCK8 assay; format: cell-based; conditions: read-out: Activity

SMILES: O=C(O)c1ccc2c(c1)nc(Nc1cccc(Cl)c1)c1ccncc12 [SILMITASERTIB]
- Activity (NCI-H1299 [1]): Dose-dependent effect
- Activity (NCI-H1299 [2]): Dose-dependent effect
- Activity (A549 [3]): inactive
- Activity (A549 [4]): inactive
- Activity (A549 [5]): Dose-dependent effect
- Activity (A549 [6]): Dose-dependent effect
- Activity (A549 [7]): Non-toxic
- viability at 24 h, up to 30 µM [8]: > 70%
- viability at 3 h, up to 30 µM [9]: > 70%

From ChEMBL document CHEMBL3120103, “CK2 inhibitor CX4945 induces sequential inactivation of proteins in the signaling pathways related with cell migration and suppresses metastasis of A549 human lung cancer cells” (Bioorg Med Chem Lett, 2013)
